In patent US5013841A, “Oxo quinoline derivatives” (Dainippon Pharmaceutical Co., Ltd., priority 1987, dated 1991):
Converted amounts (≈) assume the structure as drawn. Like-named read-outs stand apart in the source and are kept apart here.

How the values were obtained:
A. laidlawii PG-8 = test: Antimycoplasma activity (twofold agar dilution method); assay type: cell-based; conditions: Acholeplasma laidlawii, PG8, 48 h, read-out: minimum inhibitory concentration (MIC)
Description: (§1) The figures in the table show minimum inhibitory concentrations (MIC), (μg/ml), calculated for free base.
(§2) Minimum inhibitory concentrations (MIC) were determined by the twofold agar dilution method. The media used were Chanock broth and agar PPLD broth and agar (Difco) supplemented with 20% horse serum and 10% fresh yeast extract). A 2-3 day broth culture of organisms was diluted with Chanock broth to a cell density of about 10^6 cells/ml. One loopful (about […]) of the organism dilution was spotted onto 10-ml drug containing Chanock agar in petri dishes using a multiple inoculator (Cathra International). The petri dishes were incubated at 37° C. for 7 and 2 days for Mycoplasma pneumoniae and other Mycoplasma spp. respectively. Incubation was performed anaerobically using the Gaspak anaerobic system (BBL) for M. buccale, M. fermentans, M. hominis, M. orale and M. salivarium, and aerobically for other Mycoplasma spp. The MIC was defined as the lowest compound concentration at which no growth of organism was detected.

M. arginini G-230 = test: as above; assay type: cell-based; conditions: 48 h, read-out: minimum inhibitory concentration (MIC)
Description: as §1, §2

M. buccale CH-20249 = test: as above; assay type: cell-based; conditions: 48 h, read-out: minimum inhibitory concentration (MIC)
Description: as §1, §2

M. fermentans PG-18 = test: as above; assay type: cell-based; conditions: Mycoplasmopsis fermentans, PG18, 48 h; M. fermentans PG-18; Chanock agar, 37° C., 2 days, anaerobic, calculated for free base; read-out: minimum inhibitory concentration (MIC)
Description: as §1, §2

M. hominis PG-21 = test: as above; assay type: cell-based; conditions: Metamycoplasma hominis, PG21, 48 h; M. hominis PG-21; Chanock agar, 37° C., 2 days, anaerobic, calculated for free base; read-out: minimum inhibitory concentration (MIC)
Description: as §1, §2

M. hyorhinis BST-7 = test: as above; assay type: cell-based; conditions: Mesomycoplasma hyorhinis, BST7, 48 h, read-out: minimum inhibitory concentration (MIC)
Description: as §1, §2

M. salivarium PG-20 = test: as above; assay type: cell-based; conditions: 48 h, read-out: minimum inhibitory concentration (MIC)
Description: as §1, §2

[1] = test system: Staphylococcus aureus 50774; assay type: in vivo, Staphylococcus aureus (male mice, Std-ddY); conditions: Staphylococcus aureus, 50774, 336 h; mice, oral, twice (immediately and 6 h after intravenous infection), 14 days, calculated for free base; read-out: median effective dose (ED50)
From the text: Staphylococcus aureus 50774
Intravenous infection with 5×10^8 cells per mouse suspended in saline.
For 7 days for other organisms.

[2] = test system: Streptococcus pneumoniae 1 Neufeld; assay type: in vivo, Streptococcus pneumoniae (male mice, Std-ddY); conditions: 336 h, mice, oral, four times (immediately, 6, 24 and 30 h after intraperitoneal infection), 14 days, calculated for free base, read-out: median effective dose (ED50)
[3] = Urinary excretion in mice (thin-layer cup-plated method, Escherichia coli Kp indicator); assay type: in vivo; conditions: mouse, urine, oral, 5 mg/kg, read-out: Urinary recovery for 24 hours
Description: A suspension containing each of compounds was orally administered to mice at a dose of 5 mg/kg. Urine was collected over a period of 24 hours after adminstration. The levels of the compounds in urine were determined by the thin-layer cup-plated method using Escherichia coli Kp as an indicator organism.

[4] = test system: Streptococcus pyogenes A65; conditions: A65, in Mus musculus, po, 168 h, read-out: median effective dose (ED50)
[5] = test system: Pseudomonas aeruginosa 12; conditions: Pseudomonas aeruginosa, 12, in Mus musculus, po, 168 h, read-out: median effective dose (ED50)

Nc1c(F)c(N2CCNCC2)cc2c1c(=O)c(C(=O)O)cn2C1CC1 [Compound 1]
MIC (A. laidlawii PG-8; A. laidlawii PG-8, Chanock agar, 37° C., 2 days, aerobic, calculated for free base): 0.1 µg/mL (≈ 0.289 µM) | MIC (M. arginini G-230; M. arginini G-230, Chanock agar, 37° C., 2 days, aerobic, calculated for free base): 0.1 µg/mL (≈ 0.289 µM) | MIC (M. buccale CH-20249; M. buccale CH-20249, Chanock agar, 37° C., 2 days, anaerobic, calculated for free base): 0.1 µg/mL (≈ 0.289 µM) | MIC (M. fermentans PG-18): 0.1 µg/mL (≈ 0.289 µM) | MIC (M. hominis PG-21): 0.39 µg/mL (≈ 1.13 µM) | MIC (M. hyorhinis BST-7; M. hyorhinis BST-7, Chanock agar, 37° C., 2 days, aerobic, calculated for free base): 0.1 µg/mL (≈ 0.289 µM) | MIC (M. salivarium PG-20; M. salivarium PG-20, Chanock agar, 37° C., 2 days, anaerobic, calculated for free base): 1.56 µg/mL (≈ 4.5 µM)

C[C@@H]1CN(c2cc3c(c(N)c2F)c(=O)c(C(=O)O)cn3C2CC2)C[C@H](C)N1 [Compound 2, 5-amino-1-cyclopropyl-6-fluoro-7-(cis-3,5-dimethyl-1-piperazinyl)-1,4-dihydro-4-oxoquinoline-3-carboxylic acid]
ED50 [1]: 1.41 mg/kg | ED50 [2]: 10.2 mg/kg | MIC (A. laidlawii PG-8): 0.05 µg/mL (≈ 0.134 µM) | MIC (M. arginini G-230): 0.05 µg/mL (≈ 0.134 µM) | MIC (M. buccale CH-20249): 0.05 µg/mL (≈ 0.134 µM) | MIC (M. fermentans PG-18): 0.025 µg/mL (≈ 0.0668 µM) | MIC (M. hominis PG-21): 0.1 µg/mL (≈ 0.267 µM) | MIC (M. hyorhinis BST-7): 0.05 µg/mL (≈ 0.134 µM) | MIC (M. salivarium PG-20): 0.39 µg/mL (≈ 1.04 µM) | dose excreted at 24 h [3]: 8.33% | ED50 [4]: 11.6 mg/kg | ED50 [5]: 1.98 mg/kg
